Experimental data as given in patent US20230265151A1, “GIP/GLP1 CO-AGONIST COMPOUNDS” (priority 2020, published 2023).
Where two headings read alike, the source gives them in different places.

Legend:
hGLP-1R = hGLP-1R (Homo sapiens, UniProt P43220); assay: Functional cAMP formation (HTRF) in HEK-293 clonal cells expressing hGLP-1R, 0.1% bovine casein, without or with 1.0% human serum albumin; format: cell-based; set-up: expressed in transfected cells; conditions: for Emax: percent of maximal response to GLP-1(7-36)NH2; for EC50: hGLP-1R EC50, nM (SEM, n), cAMP, 37° C., 0.1% bovine casein (no human serum albumin), geometric mean
Method in brief: (§1)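 Readings of the HTRF 665/620 nm ratio, which falls as cAMP rises, were converted to nM cAMP using a standard curve after 30 min peptide exposure at 37° C.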

hGCGR = target: T1, hGCGR (Homo sapiens, UniProt P47871); assay: Functional cAMP formation (HTRF) in HEK-293 clonal cells expressing hGCGR, 0.1% bovine casein, without or with 1.0% human serum albumin; format: cell-based; conditions: hGCGR EC50, nM (SEM, n), cAMP, 37° C.
T1 construct: expressed in transfected cells
Method in brief: as §1

hGIPR = target: T2, hGIPR (Homo sapiens, UniProt P48546); assay: Functional cAMP formation (HTRF) in HEK-293 clonal cells expressing hGIPR, 0.1% bovine casein, without or with 1.0% human serum albumin; format: cell-based; conditions: for Emax: percent of maximal response to GIP(1-42)NH2; for EC50: hGIPR EC50, nM (SEM, n), cAMP, 37° C.
T2 construct: expressed in transfected cells
T2 sequence (P48546 22-466): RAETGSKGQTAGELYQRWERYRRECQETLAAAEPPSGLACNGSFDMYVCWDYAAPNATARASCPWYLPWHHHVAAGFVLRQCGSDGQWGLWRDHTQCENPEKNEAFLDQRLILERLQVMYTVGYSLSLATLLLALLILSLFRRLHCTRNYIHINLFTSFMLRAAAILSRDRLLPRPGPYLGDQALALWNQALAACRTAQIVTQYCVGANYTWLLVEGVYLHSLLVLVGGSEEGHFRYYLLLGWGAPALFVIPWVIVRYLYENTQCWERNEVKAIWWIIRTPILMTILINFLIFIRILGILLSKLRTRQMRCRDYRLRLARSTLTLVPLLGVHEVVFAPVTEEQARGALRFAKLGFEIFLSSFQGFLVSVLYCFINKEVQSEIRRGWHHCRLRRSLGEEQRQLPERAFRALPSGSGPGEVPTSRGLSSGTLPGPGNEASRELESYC
Method in brief: as §1

[1] = target: T3, human GLP-1 receptor (hGLP-1R) (Homo sapiens, UniProt P43220); assay: [125I]-GLP-1 binding, SPA with membranes of HEK293 cells expressing hGLP-1R
T3 construct: expressed in transfected cells; crude membranes

[2] = HEK293, read-out: hGLP-1R Emax, % ± SEM, cAMP, 37° C., 0.1% bovine casein, arithmetic mean
[3] = 0.1% bovine casein (no human serum albumin), geometric mean
[4] = 0.1% bovine casein and 1.0% human serum albumin, geometric mean (SEM, n)
[5] = HEK293, read-out: hGIPR Emax, % ± SEM, cAMP, 37° C., 0.1% bovine casein and 1.0% human serum albumin

T1 sequence (P47871 26-477): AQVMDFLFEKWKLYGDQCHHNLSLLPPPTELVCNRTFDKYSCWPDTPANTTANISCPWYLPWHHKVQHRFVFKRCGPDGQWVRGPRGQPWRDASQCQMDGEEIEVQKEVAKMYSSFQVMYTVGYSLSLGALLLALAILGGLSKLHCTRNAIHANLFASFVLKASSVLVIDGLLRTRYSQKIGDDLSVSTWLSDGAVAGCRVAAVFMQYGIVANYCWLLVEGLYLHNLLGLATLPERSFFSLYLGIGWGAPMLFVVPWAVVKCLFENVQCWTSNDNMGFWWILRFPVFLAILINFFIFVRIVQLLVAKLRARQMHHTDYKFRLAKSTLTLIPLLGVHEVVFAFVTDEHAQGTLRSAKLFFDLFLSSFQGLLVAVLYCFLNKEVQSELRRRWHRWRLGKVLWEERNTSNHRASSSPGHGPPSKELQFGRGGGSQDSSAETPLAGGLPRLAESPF
hGLP-1R, sequence (P43220 24-463): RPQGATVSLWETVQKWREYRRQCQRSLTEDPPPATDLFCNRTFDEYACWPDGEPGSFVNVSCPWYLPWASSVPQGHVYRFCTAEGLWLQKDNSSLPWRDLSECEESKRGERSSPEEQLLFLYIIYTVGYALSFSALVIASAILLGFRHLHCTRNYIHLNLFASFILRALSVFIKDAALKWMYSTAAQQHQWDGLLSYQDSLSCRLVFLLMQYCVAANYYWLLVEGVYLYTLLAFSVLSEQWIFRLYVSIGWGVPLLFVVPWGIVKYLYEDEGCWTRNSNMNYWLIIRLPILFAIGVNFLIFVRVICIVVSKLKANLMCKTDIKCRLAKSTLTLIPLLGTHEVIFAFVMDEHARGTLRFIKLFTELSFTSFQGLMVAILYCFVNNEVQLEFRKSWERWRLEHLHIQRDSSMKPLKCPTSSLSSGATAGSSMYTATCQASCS
T3 sequence (P43220 24-463): as above

| Compound | Emax (hGLP-1R; HEK293, read-out: hGLP-1R Emax, % ± SEM, cAMP, 37° C., 0.1% bovine casein and 1.0% human serum albumin) [%] | Emax (hGLP-1R; [2]) [%] | EC50 (hGLP-1R) [nM] | EC50 (hGCGR; [3]) [nM] | EC50 (hGCGR; [4]) [nM] | Emax (hGIPR; [5]) [%] | EC50 (hGIPR; [3]) [nM] | Ki [1] [nM] | Emax (hGIPR; HEK293, read-out: hGIPR Emax, % ± SEM, cAMP, 37° C., 0.1% bovine casein, arithmetic mean) [%] | EC50 (hGIPR; [4]) [nM] |
| --- | --- | --- | --- | --- | --- | --- | --- | --- | --- | --- |
| CC[C@H](C)[C@H](NC(=O)[C@H](CC(C)C)NC(=O)[C@](C)(Cc1ccc(O)cc1)NC(=O)[C@H](CCCCNC(=O)COCCOCCNC(=O)[C@H]1CC[C@H](CNC(=O)CC[C@H](NC(=O)CCCCCCCCCOc2ccc(C(=O)O)cc2)C(=O)O)CC1)NC(=O)[C@@H](NC(=O)[C@H](Cc1ccccc1)NC(=O)[C@H](CCCN)NC(=O)C(C)(C)NC(=O)[C@H](CCC(N)=O)NC(=O)[C@H](C)NC(=O)[C@H](CCC(N)=O)NC(=O)[C@H](CCCN)NC(=O)[C@H](CC(=O)O)NC(=O)[C@H](CC(C)C)NC(=O)[C@](C)(CC(C)C)NC(=O)[C@@H](NC(=O)C(C)(C)NC(=O)[C@H](Cc1ccncc1)NC(=O)[C@H](CC(=O)O)NC(=O)[C@H](CO)NC(=O)[C@@H](NC(=O)[C@](C)(Cc1ccccc1F)NC(=O)[C@@H](NC(=O)CNC(=O)[C@H](CCC(=O)O)NC(=O)C(C)(C)NC(=O)[C@@H](N)Cc1ccc(O)cc1)[C@@H](C)O)[C@@H](C)O)[C@@H](C)CC)[C@@H](C)CC)C(=O)N[C@@H](CCCCNC(=O)COCCOCCNC(=O)[C@H]1CC[C@H](CNC(=O)CC[C@H](NC(=O)CCCCCCCCCOc2ccc(C(=O)O)cc2)C(=O)O)CC1)C(=O)NCC(=O)NCC(=O)N1CCC[C@H]1C(=O)N[C@@H](CO)C(=O)N[C@@H](CO)C(=O)NCC(=O)N[C@@H](C)C(=O)N1CCC[C@H]1C(=O)N1CCC[C@H]1C(=O)N1CCC[C@H]1C(=O)N[C@@H](CO)C(N)=O [Example 473] | 114 | 118 | 0.192 | > 9950 | > 9950 | 92.8 | 0.0163 | 0.169 | – | – |
| CC[C@H](C)[C@H](NC(=O)[C@H](CC(C)C)NC(=O)[C@](C)(Cc1ccc(O)cc1)NC(=O)[C@H](CCCCNC(=O)COCCOCCNC(=O)CC[C@H](NC(=O)COCCOCCNC(=O)CC[C@H](NC(=O)CCCCCCCCCOc1ccc(C(=O)O)cc1)C(=O)O)C(=O)O)NC(=O)[C@@H](NC(=O)[C@H](Cc1ccccc1)NC(=O)[C@H](CCCN)NC(=O)C(C)(C)NC(=O)[C@H](CCC(N)=O)NC(=O)[C@H](C)NC(=O)[C@H](CCC(N)=O)NC(=O)[C@H](CCCN)NC(=O)[C@H](CC(=O)O)NC(=O)[C@H](CC(C)C)NC(=O)[C@](C)(CC(C)C)NC(=O)[C@@H](NC(=O)C(C)(C)NC(=O)[C@H](Cc1ccncc1)NC(=O)[C@H](CC(=O)O)NC(=O)[C@H](CO)NC(=O)[C@@H](NC(=O)[C@](C)(Cc1ccccc1F)NC(=O)[C@@H](NC(=O)CNC(=O)[C@H](CCC(=O)O)NC(=O)C(C)(C)NC(=O)[C@@H](N)Cc1ccc(O)cc1)[C@@H](C)O)[C@@H](C)O)[C@@H](C)CC)[C@@H](C)CC)C(=O)N[C@@H](CCCCNC(=O)COCCOCCNC(=O)CC[C@H](NC(=O)COCCOCCNC(=O)CC[C@H](NC(=O)CCCCCCCCCOc1ccc(C(=O)O)cc1)C(=O)O)C(=O)O)C(=O)NCC(=O)NCC(=O)N1CCC[C@H]1C(=O)N[C@@H](CO)C(=O)N[C@@H](CO)C(=O)NCC(=O)N[C@@H](C)C(=O)N1CCC[C@H]1C(=O)N1CCC[C@H]1C(=O)N1CCC[C@H]1C(=O)N[C@@H](CO)C(N)=O [Example 485] | – | 115 | 0.153 | > 10100 | > 9950 | 93.8 | 0.0113 | 0.3 | – | – |
| CC[C@H](C)[C@H](NC(=O)[C@H](CC(C)C)NC(=O)[C@](C)(Cc1ccc(O)cc1)NC(=O)[C@H](CCCCNC(=O)COCCOCCNC(=O)CC[C@H](NC(=O)CC[C@H](NC(=O)CC[C@H](NC(=O)CCCCCCCCCOc1ccc(C(=O)O)cc1)C(=O)O)C(=O)O)C(=O)O)NC(=O)[C@@H](NC(=O)[C@H](Cc1ccccc1)NC(=O)[C@H](CCCN)NC(=O)C(C)(C)NC(=O)[C@H](CCC(N)=O)NC(=O)[C@H](C)NC(=O)[C@H](CCC(N)=O)NC(=O)[C@H](CCCN)NC(=O)[C@H](CC(=O)O)NC(=O)[C@H](CC(C)C)NC(=O)[C@](C)(CC(C)C)NC(=O)[C@@H](NC(=O)C(C)(C)NC(=O)[C@H](Cc1ccncc1)NC(=O)[C@H](CC(=O)O)NC(=O)[C@H](CO)NC(=O)[C@@H](NC(=O)[C@](C)(Cc1ccccc1F)NC(=O)[C@@H](NC(=O)CNC(=O)[C@H](CCC(=O)O)NC(=O)C(C)(C)NC(=O)[C@@H](N)Cc1ccc(O)cc1)[C@@H](C)O)[C@@H](C)O)[C@@H](C)CC)[C@@H](C)CC)C(=O)N[C@@H](CCCCNC(=O)COCCOCCNC(=O)CC[C@H](NC(=O)CC[C@H](NC(=O)CC[C@H](NC(=O)CCCCCCCCCOc1ccc(C(=O)O)cc1)C(=O)O)C(=O)O)C(=O)O)C(=O)NCC(=O)NCC(=O)N1CCC[C@H]1C(=O)N[C@@H](CO)C(=O)N[C@@H](CO)C(=O)NCC(=O)N[C@@H](C)C(=O)N1CCC[C@H]1C(=O)N1CCC[C@H]1C(=O)N1CCC[C@H]1C(=O)N[C@@H](CO)C(N)=O [Example 487] | – | 116 | 0.199 | > 9950 | > 9950 | 89.1 | 0.0161 | 0.217 | – | – |
| CC[C@H](C)[C@H](NC(=O)[C@H](CC(C)C)NC(=O)[C@](C)(Cc1ccc(O)cc1)NC(=O)[C@H](CCCCNC(=O)COCCOCCNC(=O)COCCOCCNC(=O)CC[C@H](NC(=O)CCCCCCCCCOc1ccc(C(=O)O)cc1)C(=O)O)NC(=O)[C@@H](NC(=O)[C@H](Cc1ccccc1)NC(=O)[C@H](Cc1ccncc1)NC(=O)C(C)(C)NC(=O)[C@H](CCC(N)=O)NC(=O)[C@H](C)NC(=O)[C@H](CCC(N)=O)NC(=O)[C@H](CCCN)NC(=O)[C@H](CC(=O)O)NC(=O)[C@H](CC(C)C)NC(=O)[C@](C)(CC(C)C)NC(=O)[C@@H](NC(=O)C(C)(C)NC(=O)[C@H](Cc1ccncc1)NC(=O)[C@H](CC(=O)O)NC(=O)[C@H](CO)NC(=O)[C@@H](NC(=O)[C@](C)(Cc1ccccc1F)NC(=O)[C@@H](NC(=O)CNC(=O)[C@H](CCC(=O)O)NC(=O)C(C)(C)NC(=O)[C@@H](N)Cc1ccc(O)cc1)[C@@H](C)O)[C@@H](C)O)[C@@H](C)CC)[C@@H](C)CC)C(=O)N[C@@H](CCCCNC(=O)COCCOCCNC(=O)COCCOCCNC(=O)CC[C@H](NC(=O)CCCCCCCCCOc1ccc(C(=O)O)cc1)C(=O)O)C(=O)NCC(=O)NCC(=O)N1CCC[C@H]1C(=O)N[C@@H](CO)C(=O)N[C@@H](CO)C(=O)NCC(=O)N[C@@H](C)C(=O)N1CCC[C@H]1C(=O)N1CCC[C@H]1C(=O)N1CCC[C@H]1C(=O)N[C@@H](CO)C(N)=O [Example 493] | – | 126 | 0.184 | > 9950 | > 9950 | 94.6 | 0.0155 | 0.25 | 105 | 0.591 |
